Bridge positions count the residues as written; N and C are the ends. Square brackets hold non-standard residues; d marks the D form. Peptide text beside a SMILES is read from it. tBuAla = CC(C)(C)C[C@H](N)C(=O)O; Mpa = O=C(O)CCS
System: porcine coronary smooth muscles
Assay: Assay of constrictor suppressing activity on porcine coronary smooth muscles (antagonism of endothelin-1 constriction)
Type: cell-based
Details: for pA₂: antagonistic activity on constriction by endothelin-1 given cumulatively about 15 minutes after the compound, negative logarithm of molar concentration of antagonist shifting the dose response curve by a factor of 2; for Relative potency: antagonistic activity on the constriction of porcine coronary smooth muscles, Example 1 = 100
Experimental: • (1) Assay of Constrictor Suppressing Activity on Porcine Coronary Smooth Muscles Spiral strips 2 mm x 15 mm prepared from the coronary right ramus circumflexus from which the adventitial connective tissues and the endothelial cells were removed were set to 4 ml organ baths. The tension of each strip was detected by a force displacement transducer UL-10GR (Minebea), and recorded by a polygraph (NEC Sanei). The organ baths were maintained at 37°C, and filled with a Krebs-Henseleit solution (composition: 118 mM NaCl, 4.7 mM KCl, 2.5 mM CaCl₂, 1.2 mM KH₂PO₄, 25.0 mM NaHCO₃, 1.2 mM MgSO₄, 10.0 mM glucose) gassed with 95% O₂ and 5% CO₂. A tension of 1.25 to 1.5 g was applied to each of the strips, followed by equilibration for 1.5 hours. 60 mM KCl was repeatedly applied thereto at intervals of 30 minutes until the constriction response became constant. After additional equilibration for 1.5 hours, a sample for assay was given thereto. The constriction of the strips was normalized by the constriction response of the individual strips to 60 mM KCl and statistically processed. The suppressing activity was determined as a pA₂ value by giving endothelin-1 cumulatively about 15 minutes after the compound having a predetermined concentration was given, and comparing the constriction thereof with that of a control sample in which only endothelin-1 was given. […] Such a case has not been reported yet. […] The affinity for the receptor was assayed by the following method.

Row | Structure (SMILES) | pA₂ | Relative potency
1 | CC[C@H](C)[C@H](NC(=O)[C@H](CC(C)C)NC(=O)[C@@H](NC(=O)[C@H](CC(C)C)NC(=O)[C@H](Cc1c[nH]cn1)NC(=O)[C@@H]1CSSC[C@H](N)C(=O)N[C@@H](CO)C(=O)N[C@H]2CSSC[C@H](NC(=O)[C@H](CCC(=O)O)NC(=O)[C@H](C)NC(=O)[C@H](CC(=O)O)NC(=O)[C@H](CCSC)NC(=O)[C@H](CC(C)C)NC(=O)[C@H](CO)NC(=O)[C@H](CO)NC2=O)C(=O)N[C@@H](C(C)C)C(=O)N[C@@H](Cc2ccc(O)cc2)C(=O)N[C@@H](Cc2ccccc2)C(=O)N1)[C@@H](C)O)C(=O)N[C@@H](Cc1c[nH]c2ccccc12)C(=O)O [Example 10, [Ala⁹, Thr¹⁸, Leu¹⁹]-ET-1] (H-CSCSSLMDAECVYFCHLTLIW-OH; disulfide 1-15, 3-11) | 5.9 | 1.6
2 | CC[C@H](C)[C@H](NC(=O)[C@H](CC(C)C)NC(=O)[C@@H](NC(=O)[C@H](CC(C)C)NC(=O)[C@H](Cc1c[nH]cn1)NC(=O)[C@@H]1CSSC[C@H](N)C(=O)N[C@@H](CO)C(=O)N[C@H]2CSSC[C@H](NC(=O)[C@H](CCC(=O)O)NC(=O)[C@H](CCCCN)NC(=O)[C@H](CC(=O)O)NC(=O)[C@H](CCSC)NC(=O)[C@H](CC(C)C)NC(=O)[C@H](CO)NC(=O)[C@H](C)NC2=O)C(=O)N[C@@H](C(C)C)C(=O)N[C@@H](Cc2ccc(O)cc2)C(=O)N[C@@H](Cc2ccccc2)C(=O)N1)[C@@H](C)O)C(=O)N[C@@H](Cc1c[nH]c2ccccc12)C(=O)O [Example 13, [Ala⁴, Thr¹⁸, Leu¹⁹]-ET-1] (H-CSCASLMDKECVYFCHLTLIW-OH; disulfide 1-15, 3-11) | 6.9 | 16
3 | CC[C@H](C)[C@H](NC(=O)[C@H](CC(C)C)NC(=O)[C@@H](NC(=O)[C@H](CC(C)C)NC(=O)[C@H](Cc1c[nH]cn1)NC(=O)[C@@H]1CSSC[C@H](N)C(=O)N[C@@H](CO)C(=O)N[C@H]2CSSC[C@H](NC(=O)[C@H](CCC(=O)O)NC(=O)[C@H](CCCCN)NC(=O)[C@H](CC(=O)O)NC(=O)[C@H](CCSC)NC(=O)[C@H](C)NC(=O)[C@H](CO)NC(=O)[C@H](CO)NC2=O)C(=O)N[C@@H](C(C)C)C(=O)N[C@@H](Cc2ccc(O)cc2)C(=O)N[C@@H](Cc2ccccc2)C(=O)N1)[C@@H](C)O)C(=O)N[C@@H](Cc1c[nH]c2ccccc12)C(=O)O [Example 15, [Ala⁶, Thr¹⁸, Leu¹⁹]-ET-1] (H-CSCSSAMDKECVYFCHLTLIW-OH; disulfide 1-15, 3-11) | 6.5 | 6
4 | CC[C@H](C)[C@H](NC(=O)[C@H](CC(C)C)NC(=O)[C@@H](NC(=O)[C@H](CC(C)C)NC(=O)[C@H](Cc1c[nH]cn1)NC(=O)[C@@H]1CSSC[C@H](N)C(=O)N[C@@H](CO)C(=O)N[C@H]2CSSC[C@H](NC(=O)[C@H](CCC(=O)O)NC(=O)[C@H](CCCCN)NC(=O)[C@H](CC(=O)O)NC(=O)[C@H](CCSC)NC(=O)[C@H](CC(C)C)NC(=O)[C@H](CO)NC(=O)[C@H](CO)NC2=O)C(=O)N[C@@H](C(C)C)C(=O)N[C@@H](Cc2ccc(O)cc2)C(=O)N[C@@H](Cc2ccccc2)C(=O)N1)[C@@H](C)O)C(=O)N[C@@H](Cc1c[nH]c2ccccc12)C(=O)O [Example 1, [Thr¹⁸, Leu¹⁹]-ET-1] (H-CSCSSLMDKECVYFCHLTLIW-OH; disulfide 1-15, 3-11) | 7.7 | 100
5 | CC[C@H](C)[C@H](NC(=O)[C@H](CC(C)C)NC(=O)[C@@H](NC(=O)[C@H](CC(C)C)NC(=O)[C@H](Cc1c[nH]cn1)NC(=O)[C@@H]1CSSCCC(=O)N[C@@H](CO)C(=O)N[C@H]2CSSC[C@H](NC(=O)[C@H](CCC(=O)O)NC(=O)[C@H](CCCCN)NC(=O)[C@H](CC(=O)O)NC(=O)[C@H](CCSC)NC(=O)[C@H](CC(C)C)NC(=O)[C@H](CO)NC(=O)[C@H](CO)NC2=O)C(=O)N[C@@H](C(C)C)C(=O)N[C@@H](Cc2ccc(O)cc2)C(=O)N[C@@H](Cc2ccccc2)C(=O)N1)[C@@H](C)O)C(=O)N[C@@H](Cc1c[nH]c2ccccc12)C(=O)O [Example 11, [Mpr¹, Thr¹⁸, Leu¹⁹]-ET-1] ([Mpa]SCSSLMDKECVYFCHLTLIW-OH; disulfide 1-15, 3-11) | 6.5 | 6
6 | CC[C@H](C)[C@H](NC(=O)[C@H](CC(C)C)NC(=O)[C@@H](NC(=O)[C@H](CC(C)C)NC(=O)[C@H](Cc1c[nH]cn1)NC(=O)[C@@H]1CSSC[C@H](N)C(=O)N[C@@H](CO)C(=O)N[C@H]2CSSC[C@H](NC(=O)[C@H](CCC(=O)O)NC(=O)[C@H](CCCCN)NC(=O)[C@H](CC(=O)O)NC(=O)[C@H](CCSC)NC(=O)[C@H](CC(C)C)NC(=O)[C@H](C)NC(=O)[C@H](CO)NC2=O)C(=O)N[C@@H](C(C)C)C(=O)N[C@@H](Cc2ccc(O)cc2)C(=O)N[C@@H](Cc2ccccc2)C(=O)N1)[C@@H](C)O)C(=O)N[C@@H](Cc1c[nH]c2ccccc12)C(=O)O [Example 14, [Ala⁵, Thr¹⁸, Leu¹⁹]-ET-1] (H-CSCSALMDKECVYFCHLTLIW-OH; disulfide 1-15, 3-11) | 5.5 | 0.6
7 | CC[C@H](C)[C@H](NC(=O)[C@H](CC(C)C)NC(=O)[C@H](CO)NC(=O)[C@H](CC(C)C)NC(=O)[C@H](Cc1c[nH]cn1)NC(=O)[C@@H]1CSSC[C@H](N)C(=O)N[C@@H](CO)C(=O)N[C@H]2CSSC[C@H](NC(=O)[C@H](CCC(=O)O)NC(=O)[C@H](CCCCN)NC(=O)[C@H](CC(=O)O)NC(=O)[C@H](CCSC)NC(=O)[C@H](CC(C)C)NC(=O)[C@H](CO)NC(=O)[C@H](CO)NC2=O)C(=O)N[C@@H](C(C)C)C(=O)N[C@@H](Cc2ccc(O)cc2)C(=O)N[C@@H](Cc2ccccc2)C(=O)N1)C(=O)N[C@@H](Cc1c[nH]c2ccccc12)C(=O)O [Example 6, [Ser¹⁸, Leu¹⁹]-ET-1] (H-CSCSSLMDKECVYFCHLSLIW-OH; disulfide 1-15, 3-11) | 7.5 | 63
8 | CC[C@H](C)[C@H](NC(=O)[C@H](CC(C)(C)C)NC(=O)[C@@H](NC(=O)[C@H](CC(C)C)NC(=O)[C@H](Cc1c[nH]cn1)NC(=O)[C@@H]1CSSC[C@H](N)C(=O)N[C@@H](CO)C(=O)N[C@H]2CSSC[C@H](NC(=O)[C@H](CCC(=O)O)NC(=O)[C@H](CCCCN)NC(=O)[C@H](CC(=O)O)NC(=O)[C@H](CCSC)NC(=O)[C@H](CC(C)C)NC(=O)[C@H](CO)NC(=O)[C@H](CO)NC2=O)C(=O)N[C@@H](C(C)C)C(=O)N[C@@H](Cc2ccc(O)cc2)C(=O)N[C@@H](Cc2ccccc2)C(=O)N1)[C@@H](C)O)C(=O)N[C@@H](Cc1c[nH]c2ccccc12)C(=O)O [Example 4, [Thr¹⁸, γLeu¹⁹]-ET-1] (H-CSCSSLMDKECVYFCHLT[tBuAla]IW-OH; disulfide 1-15, 3-11) | 7.4 | 50
9 | CC[C@H](C)[C@H](NC(=O)[C@H](Cc1ccccc1)NC(=O)[C@@H](NC(=O)[C@H](CC(C)C)NC(=O)[C@H](Cc1c[nH]cn1)NC(=O)[C@@H]1CSSC[C@H](N)C(=O)N[C@@H](CO)C(=O)N[C@H]2CSSC[C@H](NC(=O)[C@H](CCC(=O)O)NC(=O)[C@H](CCCCN)NC(=O)[C@H](CC(=O)O)NC(=O)[C@H](CCSC)NC(=O)[C@H](CC(C)C)NC(=O)[C@H](CO)NC(=O)[C@H](CO)NC2=O)C(=O)N[C@@H](C(C)C)C(=O)N[C@@H](Cc2ccc(O)cc2)C(=O)N[C@@H](Cc2ccccc2)C(=O)N1)[C@@H](C)O)C(=O)N[C@@H](Cc1c[nH]c2ccccc12)C(=O)O [Example 3, [Thr¹⁸, Phe¹⁹]-ET-1] (H-CSCSSLMDKECVYFCHLTFIW-OH; disulfide 1-15, 3-11) | 7.2 | 32
10 | CC[C@H](C)[C@H](NC(=O)[C@H](CC(C)C)NC(=O)CNC(=O)[C@H](CC(C)C)NC(=O)[C@H](Cc1c[nH]cn1)NC(=O)[C@@H]1CSSC[C@H](N)C(=O)N[C@@H](CO)C(=O)N[C@H]2CSSC[C@H](NC(=O)[C@H](CCC(=O)O)NC(=O)[C@H](CCCCN)NC(=O)[C@H](CC(=O)O)NC(=O)[C@H](CCSC)NC(=O)[C@H](CC(C)C)NC(=O)[C@H](CO)NC(=O)[C@H](CO)NC2=O)C(=O)N[C@@H](C(C)C)C(=O)N[C@@H](Cc2ccc(O)cc2)C(=O)N[C@@H](Cc2ccccc2)C(=O)N1)C(=O)N[C@@H](Cc1c[nH]c2ccccc12)C(=O)O [Example 8, [Gly¹⁸, Leu¹⁹]-ET-1] (H-CSCSSLMDKECVYFCHLGLIW-OH; disulfide 1-15, 3-11) | 6.7 | 10
11 | CC[C@H](C)[C@H](NC(=O)[C@H](CC(C)C)NC(=O)[C@@H](NC(=O)[C@H](CC(C)C)NC(=O)[C@H](Cc1c[nH]cn1)NC(=O)[C@@H]1CSSC[C@H](N)C(=O)N[C@@H](C)C(=O)N[C@H]2CSSC[C@H](NC(=O)[C@H](CCC(=O)O)NC(=O)[C@H](CCCCN)NC(=O)[C@H](CC(=O)O)NC(=O)[C@H](CCSC)NC(=O)[C@H](CC(C)C)NC(=O)[C@H](CO)NC(=O)[C@H](CO)NC2=O)C(=O)N[C@@H](C(C)C)C(=O)N[C@@H](Cc2ccc(O)cc2)C(=O)N[C@@H](Cc2ccccc2)C(=O)N1)[C@@H](C)O)C(=O)N[C@@H](Cc1c[nH]c2ccccc12)C(=O)O [Example 12, [Ala², Thr¹⁸, Leu¹⁹]-ET-1] (H-CACSSLMDKECVYFCHLTLIW-OH; disulfide 1-15, 3-11) | 6.7 | 10
